Consider two compounds from US20060035829A1, “Chemokine combinations to mobilize progenitor/stem cells” (AnorMED Inc., priority 2004, published 2006).

One assay deals with peripheral blood cells. Nature of the assay: Peripheral blood differential summary (complete blood counts, manual differentials). The assay is classed as in vivo. The conditions noted are these: BALB/c mice. Here is the method:
Mobilization experiments were performed in BALB/c mice (3 mice group). For mobilization with AMD3100 or GROβ alone, PBSC mobilization was quantified at the peak of mobilization determined for either agent in previous experiments. Thus, PBSC mobilization was quantified at 15 mins following an s.c. injection of 2.5 mg/kg GROβ and at 1 hour following an s.c. injection of 5 mg/kg AMD3100.
In the combination experiment, PBSC mobilization was quantitated at 5, 15, 30, 60 and 150 minutes after a single subcutaneous injection of 2.5 mg/kg GROβ (R & D Systems) in saline and 5 mg/kg AMD3100. The compounds were injected separately and simultaneously at different s.c. sites. Injections were scheduled so that control and mobilized mice were evaluated at the same time in every experiment. Mice were killed by CO2 asphyxiation and blood was obtained by cardiac puncture using syringes coated with EDTA (ethylenediaminetetra acetic acid). PBMC's were obtained by separation of peripheral blood (0.4 mL) on Lympholyte-M (Cedarlane Labs, Hornby, ON, Canada). Complete blood counts (CBC's) were performed on a Hemavet Mascot (CDC Technologies, Oxford, Conn.). Manual differentials were performed on Wright-Giemsa-stained (Hema-Tek 1000, Bayer, Elkhart, Ind.) blood smears or spleen and bone marrow cell cytospin preparations (Shandon, Pittsburgh, Pa.).

Assay [1] concerns CFU-GM progenitor cells in peripheral blood. Nature of the assay: Peripheral blood progenitor cell (PBSC) mobilization, CFU-GM assay of PBMC. The assay is classed as in vivo. Particulars: BALB/c mice, mean (X). Here is the method: Experimental procedures are as previously described (Pelus, L. M., et al., Blood (2001) 97:1534-1542; Blood (2004) 103:110-119). […] Mobilization experiments were performed in BALB/c mice (3 mice group). For mobilization with AMD3100 or GROβ alone, PBSC mobilization was quantified at the peak of mobilization determined for either agent in previous experiments. Thus, PBSC mobilization was quantified at 15 mins following an s.c. injection of 2.5 mg/kg GROβ and at 1 hour following an s.c. injection of 5 mg/kg AMD3100. In the combination experiment, PBSC mobilization was quantitated at 5, 15, 30, 60 and 150 minutes after a single subcutaneous injection of 2.5 mg/kg GROβ (R & D Systems) in saline and 5 mg/kg AMD3100. The compounds were injected separately and simultaneously at different s.c. sites. Injections were scheduled so that control and mobilized mice were evaluated at the same time in every experiment. Mice were killed by CO2 asphyxiation and blood was obtained by cardiac puncture using syringes coated with EDTA (ethylenediaminetetra acetic acid). PBMC's were obtained by separation of peripheral blood (0.4 mL) on Lympholyte-M (Cedarlane Labs, Hornby, ON, Canada). Complete blood counts (CBC's) were performed on a Hemavet Mascot (CDC Technologies, Oxford, Conn.). Manual differentials were performed on Wright-Giemsa-stained (Hema-Tek 1000, Bayer, Elkhart, Ind.) blood smears or spleen and bone marrow cell cytospin preparations (Shandon, Pittsburgh, Pa.). CFU-GM Assay PBMC's were assayed for CFU-GM in McCoy 5A media with 15% heat-inactivated fetal bovine serum (Hyclone Sterile Systems, Logan, Utah) and 0.3% agar (Difco Laboratories, Detroit, Mich.). PBMC's were cultured at 2×10^5/mL. CFU-GM were stimulated with 10 ng/mL recombinant murine GM-CSF (rmGM-CSF), 10 ng/mL rmIL-1α, and 50 ng/mL stem cell factor (SCF). Triplicate cultures from individual animals were incubated at 37° C., 5% CO2, 5% O2 in air for 7 days. Total CFU-GM/mL blood was determined by multiplying CFU frequencies by PBMC/ml blood corrected for white blood cell (WBC) recovery after Lympholyte-M separation.

On to `c1cc(CN2CCCNCCNCCCNCC2)ccc1CN1CCCNCCNCCCNCC1` [AMD3100, 1,1′-[1,4-phenylene-bis(methylene)]-bis-1,4,8,11-tetraazacyclotetradecane], for which, in the assay on peripheral blood cells (60 min after s.c. injection), the “% LYMPH” value is recorded as 59.17%, the “% MONO” value is listed as 3.27%, the “% PMN” value stood at 36.61% and the LYMPH is given as 8.54. Besides, in the assay on peripheral blood cells (60 min after s.c. injection), the MONO is 0.47, the PMN amounted to 5.35 and the WBC came out at 14.49. Moreover, in assay [1] (60 min after s.c. injection (GROβ 2.5 mg/kg, AMD3100 5 mg/kg)), the CFU-GM/ml came out at 698.19 CFU-GM/ml. In assay [1] (60 min after s.c. injection), the “CFU-GM Mobilized Above Control” value worked out at 576.15 and the “Fold Inc (CFU-GM/ml over PBS control)” value was 5.72.
As to “GROβ: chemokine GROβ (R & D Systems) in saline; acts via the CXCR2 receptor”, in the assay on peripheral blood cells (15 min after s.c. injection), the “% LYMPH” value is listed as 65.19%, the “% MONO” value amounted to 5.65%, the “% PMN” value amounted to 27.35% and the LYMPH is 7.76. In addition, in the assay with peripheral blood cells (15 min after s.c. injection), the MONO was determined as 0.67, the PMN is reported as 3.34 and the WBC is given as 11.98. Further, the CFU-GM/ml in assay [1] (15 min after s.c. injection (GROβ 2.5 mg/kg, AMD3100 5 mg/kg)) is listed as 2505.54 CFU-GM/ml. In assay [1] (15 min after s.c. injection), the “CFU-GM Mobilized Above Control” value amounted to 2383.50 and the “Fold Inc (CFU-GM/ml over PBS control)” value stood at 20.53.
